{
  "source": "patent US20250064762A1",
  "about": "“A SUBSTITUTED AROMATIC DICARBONIC ACID AMIDE AS AN INHIBITOR OF THE FERROPTOSIS SUPPRESSOR PROTEIN-1 (FSP1)” (JULIUS-MAXIMILIANS-UNIVERSITÄT WÜRZBURG, priority 2021, published 2025)",
  "key": {"[1]": {"system": "HT1080 cells, mouse embryonic fibroblasts (MEFs), Du145 and PC3", "assay": "Cell viability (AquaBluer): ferroptosis inducers (FINs) with or without CPBA", "assay_type": "cell-based, human", "details": "16 h", "description": "(§1) Cells were seeded onto 96-well plates (5,000 cells per well), and treated with serial dilutions of ferroptosis-inducing compounds (erastin, BSO, RSL3, FIN56) or cytotoxic drugs (staurosporine, nocodazole, tunicamycin, paclitaxel, etoposide, menadione, rotenone, FCCP, carboplatin) in the absence or presence of CPBA or iFSP1 (100 μM or 10 μM, respectively; unless stated otherwise) or the DMSO solvent control. Ferroptotic cell death was evaluated by incubating in the absence or presence of liproxstatin-1 (100 nM), ferrostatin-1 (200 nM), or deferoxamine (100 μM). Cell viability was assessed after 16 h using AquaBluer as an indicator of viable cells according to the manufacturer's recommendations (MultiTarget Pharmaceuticals, LLC). Fluorescence (excitation, 540 nm; emission, 590 nm) was analyzed on a Clariostar microplater reader.\nHT1080 cells, mouse embryonic fibroblasts (MEFs, non-transformed, non-immortalized) and human prostate carcinoma cell lines Du145 and PC3 were incubated with serial dilutions of ferroptosis inducers (FINs) erastin, BSO, RSL3 or FIN56 in the absence or presence of CPBA and/or the ferroptosis inhibitor liproxstatin-1 (HT1080, Du145, PC3: 200 μM CPBA, MEF: 100 μM CPBA; lip-1:100 nM), and cell viability was analyzed after 16 h using Aquabluer. […]\nAUC values (AUC FIN+CPBA/AUC FIN+ctrl) were calculated as described above."}, "HT1080 cells": {"system": "HT1080 cells", "assay": "Mass spectrometry lipidomics of CPBA-treated cells", "assay_type": "cell-based, human", "details": "200 μM CPBA, 16 h", "description": "Mass spectrometry-based lipid analysis was performed by Lipotype GmbH (Dresden, Germany) as described (Sampaio et al. 2011). Lipids were extracted using a two-step chloroform/methanol procedure (Ejsing et al. 2009). […]\nSamples were analyzed by direct infusion on a QExactive mass spectrometer (Thermo Fisher Scientific) equipped with a TriVersa NanoMate ion source (Advion Biosciences). Samples were analyzed in both positive and negative ion modes with a resolution of Rm/z=200=280000 for MS and Rm/z=200=17500 for MSMS experiments, in a single acquisition. […]\nData were analyzed with in-house developed lipid identification software based on LipidXplorer (Herzog et al. 2011; Herzog et al. 2012). […]\nNext, we analyzed the lipidomic signature of HT1080 cells treated with CPBA (200 μM, 16 h) using the lipidomics methods described above. […]"}, "[2]": {"system": "HT1080, Du145 or PC3 cells", "assay": "Cell viability with CPBA alone, no ferroptosis inducers", "assay_type": "cell-based", "details": "16 h", "description": "as §1\nTo study the effect of increasing CPBA concentrations in the absence of ferroptosis inducers on the viability of HT1080, Du145 or PC3 cells. Cells were incubated with the indicated concentrations of CPBA alone or in the presence of ferroptosis inhibitors deferoxamine (DFO, an iron-chelator and ferroptosis inhibitor); ferrostatin (fer, a ferroptosis inhibitor); liproxstatin-1 (lip-1, a ferroptosis inhibitor); or zVAD-FMK (a pan-caspase and apoptosis inhibitor), and cell viability was analyzed after 16 h."}},
  "note": "Entries after “also recorded” stand apart in the source; their conditions may differ.",
  "data": [
    {"smiles": "O=C(Nc1ccccc1C(=O)O)c1ccc(Oc2ccc(C(=O)Nc3ccccc3C(=O)O)cc2)cc1", "note": "[CPBA, 2-[[4-[4-[(2-carboxyphenyl)carbamoyl]phenoxy]benzoyl]amino]-benzoic acid]", "values": [
      {"measurement": "effect on FIN-induced ferroptosis / cell viability", "setting": "[1]; FINs erastin, BSO, RSL3 or FIN56, 200 μM CPBA (MEF: 100 μM)", "result": "increases the negative effect of FINs on cell viability; also recorded: strongly increases FIN-induced ferroptosis in all cell lines"},
      {"measurement": "concentration dependence of ferroptosis-sensitization", "setting": "[1]; HT1080 and PC3 cells, serial dilutions of FINs±CPBA", "result": "ferroptosis-sensitization by CPBA is concentration-dependent"},
      {"measurement": "PUFA ether lipids (PE-O, PC-O)", "setting": "HT1080 cells", "result": "downregulate polyunsaturated fatty acid (PUFA) ether lipids"},
      {"measurement": "PUFA-triacylglycerides", "setting": "HT1080 cells", "result": "upregulate PUFA-triacylglycerides (PUFA-TAGS)"},
      {"measurement": "cell death with the compound alone", "setting": "[2]; 400 μM CPBA", "result": "Non-ferroptotic, non-apoptotic cell death is observed"},
      {"measurement": "concentrations at which the compound alone is not cytotoxic", "setting": "[2]; no ferroptosis inducers", "result": "up to 200 μM"}
    ]}
  ]
}
